Experimental data published in ChEMBL document CHEMBL5634134, “Design, synthesis, and biological evaluation of novel 4,4'-bipyridine derivatives acting as CDK9-Cyclin T1 protein-protein interaction inhibitors against triple-negative breast cancer” (Eur J Med Chem, 2023).
Calls of active or inactive are those of the source. The rule behind the calls is not given here.

Tests used:
[1] = Cytotoxicity against human MRC5 cells assessed as inhibition of cell growth incubated for 72 hrs by MTT assay; type: toxicity, cell-based
[2] = system: HeLa; assay: cells; conditions: Homo sapiens, 72 h
[3] = system: MDA-MB-231; assay: Induction of apoptosis in human MDA-MB-231 cells assessed as late apoptotic cells at 1000 nM incubated for 72 hrs by Annexin V-FITC/PI staining based flow cytometry analysis (reference value: 4.04 %); type: functional
[4] = system: Hs-578T; assay: cells; conditions: Homo sapiens, 72 h
[5] = Cytotoxicity against HK-2 cells assessed as inhibition of cell growth incubated for 72 hrs by MTT assay; type: toxicity, cell-based; conditions: human
[6] = system: MDA-MB-231; assay: Induction of apoptosis in human MDA-MB-231 cells assessed as early apoptotic cells at 1000 nM incubated for 72 hrs by Annexin V-FITC/PI staining based flow cytometry analysis (reference value: 0.66 %); type: functional
[7] = system: MDA-MB-231; assay: Induction of apoptosis in human MDA-MB-231 cells assessed as necrotic cells at 1000 nM incubated for 72 hrs by Annexin V-FITC/PI staining based flow cytometry analysis (reference value: 0.49 %); type: functional
[8] = system: MDA-MB-231; assay: Induction of apoptosis in human MDA-MB-231 cells assessed as viable cells at 1000 nM incubated for 72 hrs by Annexin V-FITC/PI staining based flow cytometry analysis (reference value: 94.81 %); type: functional; conditions: read-out: Activity
[9] = system: 4T1; assay: cells; conditions: Mus musculus, 4T1, 72 h
[10] = molecular target: CDK9/cyclin T1 (Homo sapiens) (UniProt O60563+P50750); assay: Inhibition of CDK9/Cyclin T1 protein-protein interaction in human MDA-MB-231 cells at 3 uM incubated for 8 hrs by co-immunoprecipitation assay; type: cell-based
[11] = system: A549; assay: cells; conditions: Homo sapiens, A549, 72 h
[12] = system: MDA-MB-231; assay: cells; conditions: Homo sapiens, MDA-MB-231, 72 h
[13] = molecular target: CDK9/cyclin T1 (Homo sapiens, UniProt P50750); assay: Inhibition of human CDK9/Cyclin T1 in presence of ATP by radiometric kinase assay; type: protein-complex assay
CDK9/cyclin T1, sequence (O60563 whole entry): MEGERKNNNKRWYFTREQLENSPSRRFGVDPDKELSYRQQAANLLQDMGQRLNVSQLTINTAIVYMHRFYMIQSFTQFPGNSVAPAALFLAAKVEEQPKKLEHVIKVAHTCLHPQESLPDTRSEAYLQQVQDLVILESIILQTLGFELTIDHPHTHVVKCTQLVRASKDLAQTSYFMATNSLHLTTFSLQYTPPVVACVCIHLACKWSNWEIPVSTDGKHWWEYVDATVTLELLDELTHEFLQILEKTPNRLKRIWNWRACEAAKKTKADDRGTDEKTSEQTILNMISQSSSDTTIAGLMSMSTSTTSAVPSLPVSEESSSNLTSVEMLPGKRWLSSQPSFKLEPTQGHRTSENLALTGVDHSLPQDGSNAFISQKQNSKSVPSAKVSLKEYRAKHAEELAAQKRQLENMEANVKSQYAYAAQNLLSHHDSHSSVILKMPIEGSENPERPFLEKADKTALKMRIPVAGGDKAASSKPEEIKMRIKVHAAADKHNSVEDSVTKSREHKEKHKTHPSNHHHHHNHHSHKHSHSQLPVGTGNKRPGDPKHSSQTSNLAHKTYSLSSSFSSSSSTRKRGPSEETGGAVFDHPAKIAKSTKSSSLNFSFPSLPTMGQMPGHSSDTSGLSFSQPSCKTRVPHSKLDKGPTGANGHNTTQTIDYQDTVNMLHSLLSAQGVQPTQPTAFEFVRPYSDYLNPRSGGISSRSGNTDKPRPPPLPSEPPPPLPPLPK
CDK9/cyclin T1, sequence (P50750 whole entry): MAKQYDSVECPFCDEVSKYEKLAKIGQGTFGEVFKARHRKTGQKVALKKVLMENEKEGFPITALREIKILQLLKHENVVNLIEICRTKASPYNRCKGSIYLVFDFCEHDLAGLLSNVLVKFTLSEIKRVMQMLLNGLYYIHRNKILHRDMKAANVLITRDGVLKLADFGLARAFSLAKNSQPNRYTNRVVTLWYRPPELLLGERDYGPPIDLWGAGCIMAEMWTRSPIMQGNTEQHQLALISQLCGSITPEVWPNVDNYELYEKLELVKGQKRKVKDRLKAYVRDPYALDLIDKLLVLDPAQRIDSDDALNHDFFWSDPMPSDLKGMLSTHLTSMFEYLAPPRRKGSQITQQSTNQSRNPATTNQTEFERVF

[14] = system: HepG2; assay: cells; conditions: Homo sapiens, HepG2, 72 h
[15] = Cytotoxicity against human L02 cells assessed as inhibition of cell growth incubated for 72 hrs by MTT assay; type: toxicity, cell-based
[16] = Cytotoxicity against human MCF-10A cells assessed as inhibition of cell growth incubated for 72 hrs by MTT assay; type: toxicity, cell-based
[17] = Selectivity index, ratio of IC50 for the cytotoxicity against human LO2 cells to IC50 for antiproliferative activity against human MDA-MB-231 cells; type: toxicity, cell-based; conditions: LO2 cells versus MDA-MB-231 cells, read-out: Ratio IC50
[18] = system: BT-549; assay: cells; conditions: Homo sapiens, BT-549, 72 h
[19] = system: MDA-MB-231; assay: Inhibition of RNA Polymerase II CTD phosphorylation at ser2 residue in human MDA-MB-231 cells at 1 uM incubated for 24 hrs by Western blotting analysis; type: cell-based
[20] = system: MDA-MB-231; assay: Antiproliferative activity against human MDA-MB-231 cells assessed as inhibition of cell growth incubated for 48 hrs by MTT assay; type: functional, cell-based; conditions: MDA-MB-231, 48 h
[21] = system: MDA-MB-231; assay: Inhibition of colony formation in human MDA-MB-231 cells at 2 uM incubated for 10 days by crystal violet staining based analysis; type: functional, cell-based; conditions: time 10.0 day
[22] = system: MDA-MB-231; assay: Antiproliferative activity against human MDA-MB-231 cells assessed as decrease in sphere size by measuring sphere diameter at 10 uM incubated for 10 days by confocal laser scanning microscopy (reference value: 508.27 micrometer); type: functional; conditions: time 10 day

Row | SMILES | IC50 [2] | IC50 [11] | IC50 [12] | IC50 at 72 h [15] | further results
1 | N[C@H]1CC[C@H](Nc2cc(-c3cccc(NCc4cccc(F)c4)n3)c(Cl)cn2)CC1 | 0.15 µM | 1.62 µM | 80 nM | 278 nM | IC50 at 72 h [1]: 197 nM; Activity [3]: 42.9%; IC50 [4]: 74 nM; IC50 at 72 h [5]: 187 nM; Activity [6]: 37.6%; Activity [7]: 0.2%; viability at 1 µM [8]: 19.3%; IC50 [9]: 116 nM; inhibition [10]: inactive; IC50 [13]: < 0.4 nM; IC50 [14]: 473 nM; IC50 at 72 h [16]: 108 nM; selectivity ratio [17]: 3; IC50 [18]: 53 nM
2 | COc1ccc(C(=O)Nc2cc(-c3ccnc(N4CCC(C)CC4)c3)ccn2)cc1 | 1.59 µM | 2.71 µM | 184 nM | 4170 nM | 
3 | CCOc1ccc(C(=O)Nc2cc(-c3ccnc(N4CCC(O)CC4)c3)ccn2)cc1 | 1.36 µM | 5.34 µM | 103 nM | 132 nM | inhibition [19]: Active; selectivity ratio [17]: 1
4 | Cc1ccc(C(=O)Nc2cc(-c3ccnc(N4CCC(O)CC4)c3)ccn2)cc1 | 3.28 µM | 2.4 µM | 261 nM | 875 nM | inhibition [19]: Active
5 | O=C(Nc1cc(-c2ccnc(N3CCC(O)CC3)c2)ccn1)c1ccc(C(F)(F)F)cc1 | 0.257 µM | 1.65 µM | 112 nM | 1960 nM | inhibition [19]: Active
6 | O=C(Nc1cc(-c2ccnc(N3CCCC(CO)C3)c2)c(Cl)cn1)c1ccc(F)cc1 (stereo unspecified) | 0.276 µM | 1.85 µM | 585 nM | > 10000 nM | 
7 | Cc1sc2c(c1C)C(c1ccc(Cl)cc1)=N[C@@H](CC(=O)OC(C)(C)C)c1nnc(C)n1-2 |  |  |  |  | IC50 [20]: 3.15 µM
8 | O=c1[nH]cc(F)c(=O)[nH]1 [FLUOROURACIL] |  |  |  |  | IC50 [20]: 13.9 µM
9 | CC(=O)O[C@H]1C(=O)[C@@]2(C)[C@H]([C@H](OC(=O)c3ccccc3)[C@]3(O)C[C@H](OC(=O)[C@H](O)[C@@H](NC(=O)c4ccccc4)c4ccccc4)C(C)=C1C3(C)C)[C@]1(OC(C)=O)CO[C@@H]1C[C@@H]2O [PACLITAXEL] |  |  |  |  | IC50 [20]: < 0.005 µM
10 | O=P1(N(CCCl)CCCl)NCCCO1 (stereo unspecified) [CYCLOPHOSPHAMIDE ANHYDROUS] |  |  |  |  | IC50 [20]: > 50 µM
11 | COc1ccc(C(=O)Nc2cc(-c3ccnc(N4CCCC(CO)C4)c3)ccn2)cc1 (stereo unspecified) | 0.272 µM | 2.44 µM | 76 nM | 2600 nM | selectivity ratio [17]: 34
12 | COc1ccc(C(=O)Nc2cc(-c3ccnc(N4CCC(NC(=O)OC(C)(C)C)CC4)c3)ccn2)cc1 | > 10 µM | 3.29 µM | 199 nM | 538 nM | 
13 | Cc1cccc(C(=O)Nc2cc(-c3ccnc(N4CCC(C)CC4)c3)ccn2)c1 | > 10 µM | > 10 µM | 3140 nM | 6370 nM | 
14 | COc1ccc(CC(=O)Nc2cc(-c3ccnc(N4CCC(O)CC4)c3)ccn2)cc1 | > 10 µM | > 10 µM | 7860 nM | > 10000 nM | inhibition [19]: Active
15 | CC1CCCN(c2cc(-c3ccnc(NC(=O)c4ccc(F)cc4)c3)ccn2)C1 (stereo unspecified) | 0.474 µM | 4.32 µM | 273 nM | 1230 nM | 
16 | COc1cccc(C(=O)Nc2cc(-c3ccnc(N4CCC(O)CC4)c3)ccn2)c1 | > 10 µM | 2.88 µM | 3940 nM | 2980 nM | inhibition [19]: Active

Row | SMILES | IC50 [2] | IC50 [11] | IC50 [12] | IC50 at 72 h [15] | further results
17 | O=C(Nc1cc(-c2ccnc(N3CCC(O)CC3)c2)ccn1)c1ccccc1Cl | > 10 µM | > 10 µM | > 10000 nM | > 10000 nM | 
18 | COc1ccc(CNc2cc(-c3ccnc(N4CCC(O)CC4)c3)ccn2)cc1 | > 10 µM | > 10 µM | 3220 nM | > 10000 nM | inhibition [19]: Active
19 | COc1ccc(C(=O)Nc2cc(-c3ccnc(N(C)CCO)c3)ccn2)cc1 | 0.527 µM | > 10 µM | 367 nM | 1120 nM | 
20 | Cc1ccccc1C(=O)Nc1cc(-c2ccnc(N3CCC(O)CC3)c2)ccn1 | > 10 µM | > 10 µM | > 10000 nM | > 10000 nM | 
21 | O=C(c1cc(Cc2n[nH]c(=O)c3ccccc23)ccc1F)N1CCN(C(=O)C2CC2)CC1 [OLAPARIB] |  |  |  |  | inhibition [21]: inactive; Activity [22]: 472.83 um; IC50 [20]: > 50 µM
22 | CCN1CCN(c2cc(-c3ccnc(NC(=O)c4ccc(OC)cc4)c3)ccn2)CC1 | 3.26 µM | 1.58 µM | 1000 nM | 6890 nM | 
23 | COc1cccc2c1C(=O)c1c(O)c3c(c(O)c1C2=O)C[C@@](O)(C(=O)CO)C[C@@H]3O[C@H]1C[C@H](N)[C@H](O)[C@H](C)O1 [DOXORUBICIN] |  |  |  |  | IC50 [20]: 0.153 µM
24 | COc1ccc(C(=O)Nc2cc(-c3ccnc(N4CCN(C)CC4)c3)ccn2)cc1 | > 10 µM | 4.1 µM | 485 nM | > 10000 nM | 
25 | CC1CCN(c2cc(-c3ccnc(NC(=O)c4ccc(C(F)(F)F)cc4)c3)ccn2)CC1 | 7.79 µM | > 10 µM | 3180 nM | > 10000 nM | 
26 | O=C(Nc1cc(-c2ccnc(N3CCC(O)CC3)c2)ccn1)c1cc(Cl)cc(Cl)c1 | > 10 µM | > 10 µM | > 10000 nM | > 10000 nM | 
27 | Cc1ccc(C(=O)Nc2cc(-c3ccnc(N4CCCC(O)C4)c3)ccn2)cc1 (stereo unspecified) | 1.99 µM | > 10 µM | 726 nM | 591 nM | 
28 | COc1ccc(C(=O)Nc2cc(-c3ccnc(N4CCC(N)CC4)c3)ccn2)cc1 | > 10 µM | 2.37 µM | 1160 nM | 1380 nM | 
29 | COc1cc(C(=O)Nc2cc(-c3ccnc(N4CCC(O)CC4)c3)ccn2)cc(OC)c1OC | 5.73 µM | 5.68 µM | 1740 nM | > 10000 nM | inhibition [19]: Active
30 | Cc1ccc(C(=O)Nc2cc(-c3ccnc(N4CCC(C)CC4)c3)ccn2)cc1 | 3.85 µM | > 10 µM | 1280 nM | > 10000 nM | 
31 | COc1ccc(CCC(=O)Nc2cc(-c3ccnc(N4CCC(O)CC4)c3)ccn2)cc1 | > 10 µM | > 10 µM | > 10000 nM | > 10000 nM | inhibition [19]: Active
32 | CC1CCN(c2cc(-c3ccnc(NC(=O)c4ccc(F)cc4)c3)ccn2)CC1 | > 10 µM | > 10 µM | > 10000 nM | > 10000 nM | 
